Reference: ChEMBL document CHEMBL1135837, “Approach to dual-acting platelet activating factor (PAF) receptor antagonist/thromboxane synthase inhibitor (TxSI) based on the link of PAF antagonists and TxSIs” (Bioorg Med Chem Lett, 2002)
pIC50: −log10 of the molar value.

Columns and labels:
Assay type in all cases: functional
[1] = species: Oryctolagus cuniculus; assay: In vitro inhibition of platelet activating factor induced platelet aggregation in rabbit platelet rich plasma.
[2] = molecular target: T1, Thromboxane-A synthase (Homo sapiens, UniProt P24557); assay: In vitro inhibition of TXB2 production by incubating prostaglandin H2 with human platelet microsomes.
T1 sequence (P24557 whole entry): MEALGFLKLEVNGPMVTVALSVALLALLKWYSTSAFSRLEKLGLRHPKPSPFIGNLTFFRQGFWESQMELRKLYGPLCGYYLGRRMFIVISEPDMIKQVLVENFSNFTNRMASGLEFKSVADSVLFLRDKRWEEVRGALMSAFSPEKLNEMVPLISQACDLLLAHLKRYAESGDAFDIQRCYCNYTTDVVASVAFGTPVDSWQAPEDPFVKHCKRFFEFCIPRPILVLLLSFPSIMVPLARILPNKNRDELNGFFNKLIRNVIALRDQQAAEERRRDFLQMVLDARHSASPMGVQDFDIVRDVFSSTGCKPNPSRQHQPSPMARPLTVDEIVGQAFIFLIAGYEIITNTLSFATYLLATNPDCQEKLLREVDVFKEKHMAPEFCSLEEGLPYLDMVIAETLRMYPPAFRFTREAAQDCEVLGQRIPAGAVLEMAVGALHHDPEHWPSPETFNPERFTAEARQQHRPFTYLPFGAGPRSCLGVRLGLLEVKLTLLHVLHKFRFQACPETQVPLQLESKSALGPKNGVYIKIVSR

[3] = species: Mus musculus; assay: Ex vivo antagonistic activity towards platelet activating factor was assessed in mouse by using PAF-induced death assay

SMILES | pIC50 [1] | pIC50 [2] | ED50 [3]
CCOC(=O)CCCCO/N=C(/c1cccnc1)c1cccc(CNS(=O)(=O)c2ccc(Cn3c(C)nc4cnccc43)cc2)c1 | 7.17 | 8.33 | –
Cc1nnc2n1-c1sc3c(c1C(c1ccccc1Cl)=N[C@H]2C)CCN(C(=O)C1CC1)C3 (racemic) | 6.44 | – | –
CCOC(=O)C1=C(c2ccc(-n3c(C)nc4cnccc43)cc2)NC(C)=C(C(=O)Nc2ccccn2)C1c1ccccc1Cl (stereo not given) | 7.54 | – | –
Cc1nc2cnccc2n1Cc1ccc(S(=O)(=O)NCc2cccc(/C(=N\OCCCCC(=O)O)c3cccnc3)c2)cc1 | < 6.00 | 8.74 | –
CCOC(=O)CCCCO/N=C(\c1cccnc1)c1cccc(NC(=O)c2ccn3c2CSC3c2cccnc2)c1 (stereo not given) | 6.35 | 8.92 | –
CCOC(=O)CCCCO/N=C(\c1cccnc1)c1cccc(CNS(=O)(=O)c2ccc(Cn3c(C)nc4cnccc43)cc2)c1 | 7.17 | 8.24 | –
CCOC(=O)CCCCO/N=C(\c1ccc(C(=O)N2CCc3c(sc4c3C(c3ccccc3Cl)=NC(C)c3nnc(C)n3-4)C2)cc1)c1cccnc1 (stereo not given) | 7.00 | 7.14 | 0.5 mg/kg
CCOC(=O)CCCCO/N=C(/c1cccnc1)c1cccc(C(=O)N2CCc3c(sc4c3C(c3ccccc3Cl)=NC(C)c3nnc(C)n3-4)C2)c1 (stereo not given) | 7.22 | 7.19 | 2.3 mg/kg
CCOC(=O)CCCCO/N=C(\c1ccc(NC(=O)c2ccn3c2CSC3c2cccnc2)cc1)c1cccnc1 (stereo not given) | 6.26 | 8.44 | –
CCOC(=O)CCCCO/N=C(/c1ccccc1)c1cccnc1 | – | 9.00 | –

The next lines start with results.

pIC50 [1] | pIC50 [2] | SMILES | ED50 [3]
6.55 | 7.14 | CCOC(=O)CCCCO/N=C(\c1ccc(CN2CCN(C(=O)C3CSC(c4cccnc4)N3)CC2)cc1)c1cccnc1 (stereo not given) | –
6.32 | 7.28 | CCOC(=O)CCCCO/N=C(/c1cccnc1)c1cccc(C(=O)N2CCN(C(=O)C3CSC(c4cccnc4)N3)CC2)c1 (stereo not given) | –
6.25 | < 6.00 | CCOC(=O)CCCCO/N=C(/c1cccnc1)c1ccccc1C(=O)N1CCN(C(=O)C2CSC(c3cccnc3)N2)CC1 (stereo not given) | –
< 6.00 | 7.68 | CCOC(=O)CCCCO/N=C(\c1cccnc1)c1cccc(NC(=O)C2CSC(c3cccnc3)N2)c1 (stereo not given) | –
< 6.00 | 7.68 | CCOC(=O)CCCCO/N=C(\c1ccc(NC(=O)C2CSC(c3cccnc3)N2)cc1)c1cccnc1 (stereo not given) | –
6.70 | 7.06 | CCOC(=O)CCCCO/N=C(\c1cccnc1)c1cccc(CN2CCN(C(=O)C3CSC(c4cccnc4)N3)CC2)c1 (stereo not given) | –
6.21 | 7.36 | CCOC(=O)CCCCO/N=C(\c1ccc(C(=O)N2CCN(C(=O)C3CSC(c4cccnc4)N3)CC2)cc1)c1cccnc1 (stereo not given) | –
< 6.00 | 7.92 | O=C(O)CCCCO/N=C(\c1cccnc1)c1cccc(CN2CCN(C(=O)C3CSC(c4cccnc4)N3)CC2)c1 (stereo not given) | –
